Assay results published in patent US11209437B2, “Fluorescent probe and preparation method and use thereof” (Fluorescence Diagnosis (shanghai) Biotech Company Ltd., priority 2016, dated 2021).

How the values were obtained:
[1] = test system: HeLa cells with stable expression of protein tags; experiment: Labeling of HeLa cells expressing protein tags vs HeLa-WT cells, confocal imaging; type: cell-based; conditions: probe 5 μM, 37° C., 2 hrs
Protocol: HeLa cells with stable expression of protein tags and HeLa-WT cells (HeLa primitive cells, with no protein tag expressed) were implanted in a 14 mm glass-bottom 96-well cell culture plate and stabilized for 10 hrs. Probes 1, 15, 21, 30, 56, 60, 63, 88 were added to the media, respectively and diluted to 5 μMs. The cells were incubated in a carbon dioxide incubator at 37° C. for 2 hrs, and then a Leica TPS-8 confocal microscopy was used to image the fluorescent changes of the labeled cells. […] However, for HeLa cells with protein tags expressed shown by group A in FIG. 12, strong fluorescent signals could be detected, which are nearly 300 times stronger.

HeLa cells = experiment: Labeling of organelle-localized protein tags in HeLa cells without washing; type: cell-based; conditions: 0.2 μM probe, 2 hrs, no washing
Excerpt: To verify that probes 1, 21, 48, 60, 66 and 77 can be used to label target proteins located by different organelles, HeLa cells were taken as an example to detect the effect of probes on labeling different subcellular proteins. HeLa cells were implanted 5000 cells per well in a 96-well glass-bottom cell culture plate. 14 hrs later, the cells were transfected with the plasmids encoding different organelle localized protein tags using Lipo2000; the original medium was removed 24 hrs after transfection, washed with a phenol-free red DMEM medium twice, and incubated with a phenol-free red medium containing 0.2 μM probes for 2 hrs, and then the cell labeling effects were detected by imaging with a leica TCS-8 confocal microscopy.

fusion protein CX43-SNAP = experiment: Tracing assembly of CX43-SNAP intercellular channels in HeLa cells; type: cell-based; conditions: probe 21 2 μM 1 hour first, then probe 1 1 μM
Excerpt: To verify that the probe of the present invention can be used to monitor the assembly and degradation process of biological macromolecules in mammalian cells in real time, the process of tracing the assembly of intercellular protein CX43 to form intercellular channels in mammalian cells by the probe was detected by taking HeLa cells as an example. The C-terminal of CX43 gene was fused with SNAP gene, and HeLa cell line with stable expression of fusion protein CX43-SNAP was constructed and obtained by lentivirus infection technology. HeLa-CX43-SNAP cell lines were implanted in a 20 mm glass-bottom cell culture dish 10 hrs before the probe labeling. To conduct labeling, a phenol-free red DMEM medium was first used to dilute the probe 21 to 2 μM to replace the original cell culture medium. Cells were incubated in a carbon dioxide incubator at 37° C. for 1 hour. The cells were then washed twice using a fresh phenol-free red DMEM medium, with unbound probe 21 removed at 2-minute intervals. Then, DMEM phenol-free red culture medium containing 1 μM probe 1 was added to label cells. Leica SP8 confocal microscopy was used to monitor for a long time the fluorescence intensity and position changes of labeled cell samples at the corresponding fluorescence channels of probes 21 and 1, as shown in FIGS. 17A and 17B, respectively. […]

SNAP protein tags = target: T1, SNAP protein tags (Homo sapiens, UniProt P16455, A127T/A154D/C150Q/C62A/E30R/G131K/G132T/G153L/K125A/K32I/L33F/M134L/N157G/Q115S/Q116H/R128A/R135S/S151G/S152D/S159E); experiment: Fluorescence activation of probe after incubation with corresponding protein tag (SNAP); type: biochemical; conditions: probe 5 μM, protein tag 10 μM, 37° C., 1 hr
T1 sequence (P16455 1-182 E30R/K32I/L33F/C62A/Q115S/Q116H/K125A/A127T/R128A/G131K/G132T/M134L/R135S/C150Q/S151G/S152D/G153L/A154D/N157G/S159E): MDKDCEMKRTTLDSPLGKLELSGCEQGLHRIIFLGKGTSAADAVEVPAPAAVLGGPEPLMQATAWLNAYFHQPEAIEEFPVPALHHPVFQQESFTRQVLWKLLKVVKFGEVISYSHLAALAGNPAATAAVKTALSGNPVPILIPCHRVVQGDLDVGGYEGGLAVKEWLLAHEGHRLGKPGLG
Summary of the method: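 Probe (5 μM final) mixed with CLIP or SNAP protein tag (10 μM final) and incubated 1 hr at 37° C. Fluorescence intensity change measured by fluorescence spectrophotometer, with quantum yield of tag-bound probe determined.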

[2] = Viscosity responsiveness: fluorescence emission spectra of probes in glycerol and methanol; type: physicochemical; conditions: for Emission wavelength: excited at maximum excitation wavelength of each probe; for Fluorescence ratio in glycerol to methanol: probe 1×10^−5 M
Summary of the method: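 Each probe, from a 1×10^−2 M DMSO stock, was diluted to a final 1×10^−5 M in glycerol and in methanol. Fluorescence emission spectra were then recorded under identical conditions at each probe's maximum excitation wavelength.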

[3] = Fluorescence of free probe prior to binding to a protein tag; type: physicochemical
CLIP protein tags = experiment: Fluorescence activation of probe after incubation with corresponding protein tag (CLIP); type: biochemical; conditions: probe 5 μM, protein tag 10 μM, 37° C., 1 hr
Protocol: Probes were mixed with corresponding protein tags to obtain mixed samples, in which the final probe concentration was 5 μM, and the final protein tag concentration was 10 μM. The mixed samples were incubated 37° C. for 1 hr, fluorescence spectrophotometer was used to detect the change in fluorescence intensity, and the results are shown in Table 1.
From the quantum yield of probe bound to protein tag, after reacting with the protein tags, the probes of the Examples could be detected to have significant signal enhancement in corresponding excitation transmission channels, the fluorescence activation multiple reached several hundreds to a thousand or more, and the brightness was high, which illustrates that after the probes of the Examples are bound to the protein tags, fluorescence of the probes can be activated, and the probes have good fluorescent molecular switching properties. In contrast, though the fluorescence of the reference probes could also be activated, the quantum yield of activated fluorescence was very low, and the brightness was very poor. In particular, in view of comparison results between probe 98 and reference probe 99, probe 101 and reference probe 102, probe 103 and reference probe 104, probe 105 and reference probe 106, probe 107 and reference probe 108, probe 109 and reference probe 110, probe 111 and reference probe 112, probe 114 and reference probe 115, probe 117 and reference probe 118, probe 120 and reference probe 121 in Table 1, for the same fluorescent dye, when the ligand is connected to the electron donor part of the fluorescent dye, the fluorescence activation brightness of the probe is much higher than the reference probe in which ligand is connected to the electron acceptor part of the fluorescent dye.

| SMILES | Fluorescence signal in HeLa-WT cells (no protein tag expressed) [1] | Fluorescent signal in HeLa cells with protein tags expressed, relative to HeLa-WT [1] | Labeling of subcellular organelle structures (HeLa cells) | Fluorescence signal at intercellular channels (fusion protein CX43-SNAP) | Fluorescence activation multiple (SNAP protein tags) | Quantum yield of probe bound to protein tag (SNAP protein tags) | Emission wavelength [2] | Fluorescence ratio in glycerol to methanol [2] | Quantum yield of free probe [3] | Fluorescence activation multiple (CLIP protein tags) | Quantum yield of probe bound to protein tag (CLIP protein tags) |
| --- | --- | --- | --- | --- | --- | --- | --- | --- | --- | --- | --- |
| CN(CCOC(=O)NCc1ccc(COc2nc(N)nc3[nH]cnc23)cc1)c1ccc(/C=C(\C#N)C(=O)OC(C)(C)C)cc1 [probe 1] | no corresponding fluorescence signal was detected | ~300 times | clearly display a variety of subcellular organelle structures without washing | appeared and gradually increased at the edge of intercellular channels | 360 | 0.35 | 480 nm | 560 | <0.001 |  |  |
| CN(CCOC(=O)NCc1ccc(COc2nc(N)nc3[nH]cnc23)cc1)c1ccc2cc(/C=C(\C#N)C(=O)OC(C)(C)C)sc2c1 [probe 30] | no corresponding fluorescence signal was detected | ~300 times |  |  | 535 | 0.55 | 570 nm | 1125 | <0.001 |  |  |
| CN(CCOC(=O)NCc1ccc(COc2nccc(N)n2)cc1)c1ccc2nc(/C=C(\C#N)c3nc4ccccc4s3)oc2c1 [probe 48] |  |  | clearly display a variety of subcellular organelle structures without washing |  |  |  | 625 nm | 180 | <0.001 | 428 | 0.16 |
| CN(CCOC(=O)NCc1ccc(COc2nc(N)nc3[nH]cnc23)cc1)c1ccc(C#C/C=C(\C#N)C(=O)OC(C)(C)C)cc1 [probe 56] | no corresponding fluorescence signal was detected | ~300 times |  |  | 989 | 0.39 | 566 nm | 436 | <0.001 |  |  |
| CN(CCOC(=O)NCc1ccc(COc2nc(N)nc3[nH]cnc23)cc1)c1cc2sc3cc(/C=C(\C#N)C(=O)OC(C)(C)C)sc3c2s1 [probe 60] | no corresponding fluorescence signal was detected | ~300 times | clearly display a variety of subcellular organelle structures without washing |  | 751 | 0.81 | 620 nm | 1199 | 0.0011 |  |  |
| CN(CCOC(=O)NCc1ccc(COc2nc(N)nc3[nH]cnc23)cc1)c1ccc2c(c1)sc1cc(/C=C(/C#N)C(=O)OC(C)(C)C)sc12 [probe 63] | no corresponding fluorescence signal was detected | ~300 times |  |  | 486 | 0.73 | 620 nm | 531 | 0.0015 |  |  |
| CN(CCOC(=O)NCc1ccc(COc2nc(N)nc3[nH]cnc23)cc1)c1ccc(-c2ccc(/C=C(\C#N)C(=O)OC(C)(C)C)s2)cc1 [probe 66] |  |  | clearly display a variety of subcellular organelle structures without washing |  | 512 | 0.37 | 620 nm | 386 | <0.001 |  |  |
| CN(CCOC(=O)NCc1ccc(COc2nc(N)nc3[nH]cnc23)cc1)c1ccc(-c2ccc(/C=C(\C#N)C(=O)OC(C)(C)C)s2)s1 [probe 77] |  |  | clearly display a variety of subcellular organelle structures without washing |  | 268 | 0.38 | 655 nm | 279 | 0.0014 |  |  |
| CN(CCOC(=O)NCc1ccc(COc2nccc(N)n2)cc1)c1cc2c(s1)-c1sc(/C=C(/C#N)C(=O)OC(C)(C)C)cc1C2(C)C [probe 95] |  |  |  |  |  |  | 645 nm | 431 | <0.001 | 553 | 0.42 |
| CN(CCOC(=O)NCc1ccc(COc2nccc(N)n2)cc1)c1cc2c(s1)-c1sc(/C=C(/C#N)c3nc4ccccc4o3)cc1C2(C)C [probe 96] |  |  |  |  |  |  | 675 nm | 125 | <0.001 | 435 | 0.31 |
| CN(CCOC(=O)NCc1ccc(COc2nccc(N)n2)cc1)c1cc2c(s1)-c1sc(/C=C(/C#N)c3nc4ccccc4s3)cc1C2(C)C [probe 97] |  |  |  |  |  |  | 700 nm | 261 | <0.001 | 812 | 0.23 |
